Read-outs that look alike come from different tables or passages of the source.
Legend:
[1] = Solubility in DMSO and common organic solvents; assay type: physicochemical
Method: Coordination of the axial ligands to the Pt center improved the solubility of the complexes in common organic solvents. DMSO solutions of the Pt(IV) complexes with concentrations of 10 mM or higher were obtainable, whereas the Pt(II) can only be made at the highest concentration of 5 mM.

H520 lung cancer cells = assay: MTS cell viability assay, H520; assay type: cell-based, human; conditions: read-out: EC50 (effective concentration that resulted in 50% cell viability)
Method: (§1) Human breast (HCC38, MCF-7, MDA-MB-231, SK-BR-3, T-47D, and ZR-75-1), lung (A549 and H520), and prostate (DU145 and PC-3) cancer cell lines were obtained from American Culture Type Collection (ATCC). The HCC38, MCF-7, MDA-MB-231, SK-BR-3, T-47D, ZR-75-1, and A549 cells were grown in MEM supplemented with 10% FBS, 25 mM HEPES buffer (pH 7.4), penicillin (100 U/mL), and streptomycin (100 μg/mL). The H520, DU145, and PC-3 cell lines were grown in RPMI-1640 supplemented with 10% FBS, 25 mM HEPES buffer (pH 7.4), penicillin (100 U/mL), and streptomycin (100 μg/mL). All cell lines were maintained at 37° C. in a humidified, 5% CO2 atmosphere.
(§2) Cells were cultured at a density of 2-3.5×10^3 cells per well in flat bottomed 96-well plates in 100 μL of complete growth medium and incubated for 2 days to reach ˜50% confluence. The cells were then treated with solvent or the appropriate drugs (CDDP stock was dissolved in 0.15 M NaCl, carboplatin stock was dissolved in 5% glucose, synthesized Pt(IV) complexes were dissolved in DMSO) for 1 hour, washed three times with 100 μL PBS, and incubated in 100 μL of fresh medium. After 2 days, the medium was replaced with 120 μL of medium containing CellTiter 96® Aqueous One Solution Reagent (MTS reagent) (Promega, Madison, Wis.). The cells were incubated at 37° C. for 4 hours and the cell viability was determined by measuring the absorbance at 490 nm using a Tecan Infinite M1000 microplate reader. The 48 h treatment was done in a similar manner, except the cells were not washed after treatment and the MTS reagent was immediately added. Viability of treated groups was calculated as a percent of control and graphed with GraphPad Prism.
(§3) The anti-proliferative activities of Pt(IV) complexes were determined in two lung (A549 and H520), two prostate (DU145 and PC-3), and six breast (HCC38, MCF-7, MDA-MB-231, SK-BR-3, T-47D, and ZR-75-1) cancer cell lines. The cells were treated with increasing concentrations of cisplatin (CDDP), carboplatin, or the Pt(IV) complexes for 1 or 48 hours, and the viability was measured using an MTS colorimetric cell proliferation assay. Graphs of the results are shown for DU145 (FIG. 8A), PC-3 (FIG. 8B), SK-BR-3 (FIG. 8C), ZR-75-1 (FIG. 8D), A549 (FIG. 8E), and MCF-7 (FIG. 8F).

[2] = test system: HCC38 breast cancer cells; assay: MTS cell viability assay, HCC38; assay type: cell-based, human; conditions: read-out: EC50 (effective concentration that resulted in 50% cell viability)
Method: as §1, §2, §3

[3] = test system: ZR-75-1 breast cancer cells; assay: MTS cell viability assay, ZR-75-1; assay type: cell-based, human; conditions: read-out: EC50 (effective concentration that resulted in 50% cell viability)
Method: as §1, §2, §3

[4] = test system: MDA-MB-231 breast cancer cells; assay: MTS cell viability assay, MDA-MB-231; assay type: cell-based, human; conditions: read-out: EC50 (effective concentration that resulted in 50% cell viability)
Method: as §1, §2, §3

[5] = test system: DU145 prostate cancer cells; assay type: cell-based, human; conditions: for EC50: read-out: EC50 (effective concentration that resulted in 50% cell viability)
Method: as §1, §2, §3
(§4) The anti-proliferative activities of certain Pt(II) complexes were determined in DU145, PC-3, and SK-BR-3 cells. The cells were treated with increasing concentrations of cisplatin (CDDP) or the Pt(II) complexes for 1 or 48 hours, and the viability was measured using an MTS colorimetric cell proliferation assay.

[6] = test system: MCF-7 breast cancer cells; assay: MTS cell viability assay, MCF-7; assay type: cell-based, human; conditions: for EC50: read-out: EC50 (effective concentration that resulted in 50% cell viability)
Method: as §1, §2, §3

A549 lung cancer cells = assay: MTS cell viability assay, A549; assay type: cell-based, human; conditions: for EC50: read-out: EC50 (effective concentration that resulted in 50% cell viability)
Method: as §1, §2, §3

[7] = test system: PC-3 prostate cancer cells; assay: MTS cell viability assay, PC-3; assay type: cell-based, human; conditions: read-out: EC50 (effective concentration that resulted in 50% cell viability)
Method: as §1, §2, §3, §4

[8] = test system: SK-BR-3 breast cancer cells; assay: MTS cell viability assay, SK-BR-3; assay type: cell-based, human; conditions: read-out: EC50 (effective concentration that resulted in 50% cell viability)
Method: as §1, §2, §3, §4

[9] = test system: T-47D breast cancer cells; assay: MTS cell viability assay, T-47D; assay type: cell-based, human
Method: as §1, §2, §3

[10] = Stability of stock solution in DMSO or ethanol; assay type: physicochemical; conditions: stock solution made in DMSO or ethanol
Method: It should be noted that while the solubility of the Pt(IV) complexes in organic solvents were increased compared to their Pt(II) precursors, they were still poorly soluble in water. Thus, Pt(IV)-1C to Pt(IV)-3C were limited to a highest concentration of 100 μM. […] Testing of Pt(IV)4C therefore was limited to 25 μM.

[11] = ZR-75-1, 1 h treatment, Table 3
[12] = MDA-MB-231, 1 h treatment, Table 3
[13] = DU145, 1 hour treatment (FIG. 8A, top), up to 1 mM carboplatin, 100 μM Pt(IV)-1C, 50 μM Pt(IV)-2C
[14] = SK-BR-3, 1 h treatment, Table 3
[15] = 1 h treatment, Table 3, read-out: EC50 (effective concentration that resulted in 50% cell viability)
[16] = 48 h, Table 5, read-out: EC50 (effective concentration that resulted in 50% cell viability)

| Compound | EC50 (H520 lung cancer cells; H520, 1 h treatment, Table 3) [nM] | EC50 (H520 lung cancer cells; H520, 48 h, Table 5) [nM] | EC50 ([2]; HCC38, 1 h treatment, Table 3) [nM] | EC50 ([2]; HCC38, 48 h, Table 5) [nM] | EC50 [3, 11] [nM] | EC50 ([3]; ZR-75-1, 48 h, Table 5) [nM] | EC50 [4, 12] [nM] | EC50 ([4]; MDA-MB-231, 48 h, Table 5) [nM] | EC50 ([5]; DU145, 1 h treatment, Table 3) [nM] | EC50 ([5]; DU145, 48 h, Table 5) [nM] | EC50 ([6]; MCF-7, 1 h treatment, Table 3) [nM] | EC50 ([6]; MCF-7, 48 h, Table 5) [nM] | EC50 (A549 lung cancer cells; A549, 1 h treatment, Table 3) [nM] | EC50 (A549 lung cancer cells; A549, 48 h, Table 5) [nM] | EC50 ([7]; PC-3, 1 h treatment, Table 3) [nM] | EC50 ([7]; PC-3, 48 h, Table 5) [nM] | EC50 [8, 14] [nM] | EC50 ([8]; SK-BR-3, 48 h, Table 5) [nM] | EC50 [9, 15] [nM] | EC50 [9, 16] [nM] | further results |
| --- | --- | --- | --- | --- | --- | --- | --- | --- | --- | --- | --- | --- | --- | --- | --- | --- | --- | --- | --- | --- | --- |
| CCCCCCCCOc1ccnc(-c2cc(OCCCCCCCC)ccn2)c1.[Cl][Pt][Cl] [Pt(II)-8C] | – | – | – | – | – | – | – | – | – | – | – | – | – | – | – | – | – | – | – | – | solubility in DMSO and other common organic solvents (in words) [1]: poor solubility in DMSO |
| [Pt(IV)Cl2(OAc)2(4,4′-dimethoxy-2,2′-bipyridine)] [Pt(IV)-1C] | > 100000 | > 100000 | > 100000 | > 100000 | > 100000 | > 100000 | > 100000 | > 100000 | > 100000 | 80000 ± 20000 | > 100000 | > 100000 | > 100000 | > 100000 | > 100000 | > 100000 | > 100000 | 80000 ± 20000 | > 100000 | 32000 ± 500 | effect on cell viability (in words) [5, 13]: did not have any effects; effect on cell viability (in words) ([5]; DU145, 48 hours treatment (FIG. 8A, bottom)): more effective than carboplatin; effect on cell viability (in words) ([6]; MCF-7, 48 hour treatment (FIG. 8F)): had no effect; effect on cell viability (in words) (A549 lung cancer cells; A549, 48 hour treatment (FIG. 8E)): had no effect |
| [Pt(IV)Cl2(OAc)2(4,4′-dioctyloxy-2,2′-bipyridine)] [Pt(IV)-8C] | 7000 ± 5000 | 1200 ± 600 | 3000 ± 600 | 1600 ± 300 | 3000 ± 1000 | 1300 ± 100 | 2100 ± 200 | 900 ± 300 | 700 ± 300 | 200 ± 100 | 4000 ± 1000 | 1300 ± 300 | 7000 ± 400 | 3000 ± 500 | 1200 ± 500 | 110 ± 20 | 330 ± 50 | 220 ± 30 | 1500 ± 500 | 250 | stability of the structure in stock solution [10]: structure is stable |
| [Pt(IV)Cl2(OAc)2(4,4′-dihexyloxy-2,2′-bipyridine)] [Pt(IV)-6C] | 2100 ± 200 | 1000 ± 400 | 2300 ± 200 | 1800 ± 500 | 1100 ± 400 | 550 ± 40 | 1100 ± 200 | 310 ± 40 | 1300 ± 200 | 500 ± 300 | 2400 ± 100 | 1600 ± 200 | 2500 ± 200 | 2200 ± 100 | 2000 ± 300 | 330 ± 40 | 360 ± 20 | 210 ± 30 | 2100 ± 400 | 240 ± 10 | – |
| CC(=O)[O][Pt]([Cl])([Cl])[O]C(C)=O.CCCOc1ccnc(-c2cc(OCCC)ccn2)c1 [Pt(IV)-3C, [Pt(IV)Cl2(OAc)2(4,4′-dipropoxy-2,2′-bipyridine)]] | 80000 ± 20000 | 8000 ± 6000 | 26000 ± 6000 | 8000 ± 1000 | 24000 ± 3000 | 1210 ± 40 | 34000 ± 7000 | 6100 ± 400 | 24000 ± 7000 | 1000 ± 1000 | > 100000 | 29000 ± 2000 | > 50000 | 23000 ± 1000 | 23000 ± 300 | 1100 ± 400 | 19000 ± 2000 | 900 ± 100 | 24000 ± 3000 | 590 ± 10 | effect on cell viability (in words) [5, 13]: least effective among the five active compounds; effect on cell viability (in words) ([6]; MCF-7, 1 hour treatment, at the concentrations tested (FIG. 8F)): did not have any effect; effect on cell viability (in words) (A549 lung cancer cells; A549, 1 hour treatment, at the concentrations tested (FIG. 8E)): did not have any effect |
